Each structure is given as a SMILES string. Entries after “also recorded” stand apart in the source; their conditions may differ.

Results on one molecule are retold here after patent US20250320190A1, “Novel Inhibitors of Leucine Carboxyl Methyltransferase-1 (LCMT-1) and Methods of Use Thereof” (Temple University-Of The Commonwealth System of Higher …, priority 2024, published 2025).

Data set [1] deals with HEK-293 cells transfected with pCMV6-LCMT1. As to the kind of experiment: Cytotoxicity assay in LCMT-1-transfected cells. To be noted: HEK-293 pCMV6-LCMT1 vs HEK-293; 0.78-50 μM; 48 hours. The class given is cell-based. The method, then: A mammalian LCMT-1 plasmid expression vector was obtained from Origene (pCMV6-LCMT1, catalog #RC200018). HEK-293 cells were transfected with the plasmid using PolyJet™ transfection reagent (SignaGen Laboratories, Frederick, Maryland) according to manufacturer's directions. After 5 hours, the medium was changed. The next day, the transfected cells were seeded in 96-well optical bottom tissue culture plates for cytotoxicity assays as previously described. After 24 hours, the medium was changed to medium containing Compound 2 at various concentrations (0.78-50 μM), or fresh medium with the carrier (dimethyl sulfoxide) in the case of the control. After 48 hours, cells were stained with calcein-AM and fluorescence was measured.

The nature of the next data set: Plasma stability. It counts as in vitro ADME. To be noted: mouse plasma; read-out: Plasma Stability (t1/2). From the text: There is no cause for concern at this stage since there are multiple strategies and reagents for enhancing aqueous solubility for animal in vivo studies (Savjani, K. T., A. K. Gajjar and J. K. Savjani, 2012, ISRN Pharm 2012: 195727.). […] While target tissue exposure is dependent on free, unbound fractions in the plasma, plasma protein binding can protect compounds from hepatic metabolism. Thus, in vivo metabolism and excretion are often determined by a balance between these two properties. In vivo half-life is a complicated property impacted upon by multiple factors and is difficult to predict. […] While these numbers are somewhat low for a drug candidate, they are acceptable for proof of concept tool molecules which can be given multiple times per day and at higher doses to saturate metabolism.

A further data set has as its system Jurkat cells. As to the kind of experiment: Radiosensitization assay (Ghost Dye 710 flow cytometry). The class given is cell-based, human. To be noted: 10 Grays. Here is the method:
(§1) Jurkat and THP-1 cells were seeded in 6-well plates as described. After 24 hours LCMT-li was added at various concentrations as described. After 3 hours, cells were irradiated at 10 Grays. After 24 hours, cell viability was assessed with Ghost Dye™ 710 staining and flow cytometry as described.
(Flow cytometry measures light scatter and fluorescence of single cells or particles in a stream.)

A further data set relates to THP-1 cells. The description is as above. As to conditions: 10 Grays. It counts as cell-based, human. Here is the method: as §1
The next data set has as its system 501-MEL cells. Put plainly: Radiosensitization assay (crystal violet). The class given is cell-based, human. As to conditions: 8 Grays. Here is the method: (§2) MCF7, MDA-MB-231, 501-MEL, Rosi, A549, SCC-15, SCC-25, UM-SCC-12, UM-SCC-14a, UM-SCC-49 and UM-SCC69 cells were seeded in 96-well tissue culture plates as previously described. After 24 hours, the media were changed to media with LCMT-li at various concentrations as described. After 3 hours, cells were irradiated at doses listed in Table 2 with an RS-2000 X-Ray Irradiator (Rad Source Technologies, Buford, Georgia). Radiation doses were based on published radiosensitization studies. After 24 hours cell viability was assessed using crystal violet staining. Briefly, cells were washed with PBS, then stained with crystal violet solution (0.25 g crystal violet in 20% methanol) for 20 minutes with agitation. The wells were washed 6 times with PBS to remove excess crystal violet. Plates were allowed to dry for 48 hours, and then 200 μL methanol was added to each well. The plates were agitated for 20 minutes to dissolve the crystal violet, and absorbance was read at 560 nm. The
(§3) radiosensitization assays were performed twice, each time with eight replicates per condition.

For a further data set, the system named is A549 cells. Put plainly: Radiosensitization assay (crystal violet). It counts as cell-based, human. To be noted: 4 Grays. The method, then: as §2, §3
A further data set relates to MCF7 cells. As to the kind of experiment: Radiosensitization assay (crystal violet). It counts as cell-based, human. To be noted: 4 Grays. Here is the method:
as §2, §3

The subject of the next data set is MDA-MB-231 cells. As to the kind of experiment: Radiosensitization assay (crystal violet). The class given is cell-based, human. To be noted: 10 Grays, data not shown. Here is the method: as §2, §3
The subject of another data set is Rosi cells. Put plainly: Radiosensitization assay (crystal violet). It counts as cell-based, human. Here is the method: as §2, §3
Data set [2] deals with SCC-15 cells. Put plainly: Radiosensitization assay (crystal violet). It counts as cell-based, human. To be noted: irradiated 8 Grays 3 hours after compound, viability after 24 hours, listed as LCMT-li. The method, then:
as §2, §3

Data set [3] concerns SCC-25 cells. As to the kind of experiment: Radiosensitization assay (crystal violet). The class given is cell-based, human. To be noted: irradiated 8 Grays 3 hours after compound, viability after 24 hours. Here is the method:
as §2, §3

Data set [4] deals with UM-SCC-12 cells. Put plainly: Radiosensitization assay (crystal violet). The class given is cell-based, human. As to conditions: irradiated 8 Grays 3 hours after compound, viability after 24 hours. Here is the method:
as §2, §3

In data set [5] the test system is UM-SCC-49 cells. Put plainly: Radiosensitization assay (crystal violet). As to conditions: irradiated 8 Grays 3 hours after compound, viability after 24 hours, listed as LCMT-li. It counts as cell-based, human. Here is the method:
as §2, §3

Data set [6] deals with UM-SCC-69 cells. Put plainly: Radiosensitization assay (crystal violet). The class given is cell-based, human. To be noted: irradiated 8 Grays 3 hours after compound, viability after 24 hours, listed as LCMT-li. Here is the method: as §2, §3
The subject of data set [7] is SCC-15 cells. As to the kind of experiment: Cell cycle analysis (BrdU) with and without irradiation. It counts as cell-based, human. To be noted: in the presence of irradiation. Here is the method:
(§4) Cells were treated with LCMT-li, radiotherapy or both as described for Annexin V assays. After 24 hours, cells were labeled with 50 μM bromodeoxyuridine (BrdU, BioGems, Westlake Village, California, catalog #5911439) for 4 hours. Cells were lifted with 0.25% trypsin, 2.21 mM ethylenediaminetetraacetic acid (EDTA) (Corning catalog #25-053-CI) after 4 hours and fixed with 70% ethanol overnight at −20° C. Cells were pelleted and permeabilized with 1 M HCl with 0.1% Triton X-100 for one minute. Cells were pelleted and cellular DNA was denatured with 2 M HCl. After neutralization with 1 M Tris, pH 8.5, cells were labeled with FITC-anti-BrdU (Biolegend, catalog #364104, 5 μL/100 μL cell suspension) and 7-aminoactinomycin-D (7-AAD, Biolegend, catalog #420404, 1 μL/100 μL cell suspension). Cells were washed with PBS with 10% FBS, and resuspended in PBS with 0.1% Triton X-100. Cells were analyzed with flow cytometry. Cell cycle analyses were performed twice with 12 replicates, 104 cells/replicate.

Data set [8] concerns SCC-25 cells. The description is as above. The class given is cell-based, human. The method, then: as §4
The test system of data set [9] is UM-SCC-12 cells. The description is as above. It counts as cell-based, human. To be noted: LCMT-li/irradiation combination vs irradiation alone. Here is the method:
as §4

A further data set deals with UM-SCC-14a cells. Described as above. It counts as cell-based, human. As to conditions: combination vs irradiation alone, listed as LCMT-li. The method, then:
as §4

The test system of data set [10] is UM-SCC-49 cells. The data set is described as above. The class given is cell-based, human. To be noted: combination vs irradiation alone. Here is the method: as §4
The subject of data set [11] is UM-SCC-69 cells. The description is as above. It counts as cell-based, human. The method, then: as §4

Regarding `COC(=O)c1c(NC(=O)c2ccccc2C)sc(C(=O)Nc2cccc(C)c2)c1C` [Compound 2, methyl 4-methyl-2-[(2-methylbenzoyl)amino]-5-[[(3-methylphenyl)amino]carbonyl]-3-thiophenecarboxylate], the “effect of LCMT-1 overexpression on survival in the presence of Compound 2” value in data set [1] is given as “significantly increased survival”. In addition, in the data set “Plasma stability”, the half-life was more than 3 h. For the same molecule, the radiosensitization entry in the data set with Jurkat cells is on record as “did not demonstrate radiosensitization”; in the data set with THP-1 cells it was “demonstrated LCMT-li radiosensitization”; in the data set on 501-MEL cells it was “did radiosensitize these cells”; in the data set on A549 cells it was “demonstrated radiosensitization”; in the data set with MCF7 cells, “did sensitize MCF7 cells to irradiation”; with MDA-MB-231 cells, “did not radiosensitize MDA-MB-231 cells”. Moreover, the radiosensitization entry in the data set with Rosi cells (8 Grays) is reported as “demonstrated radiosensitization”. In addition, the “LCMT-1i radiosensitizing Concentration” value was 50 µM in the data set with Rosi cells (irradiated 8 Grays 3 hours after compound, viability after 24 hours); 2.5 to 10 µM with SCC-15 cells [2]; 1.25 µM with SCC-25 cells [3] (listed as LCMT-1i); 2.5 to 10 µM in the data set on SCC-25 cells [3] (listed as LCMT-li); 200 µM with UM-SCC-12 cells [4]; 2.5 to 10 µM in the data set with UM-SCC-49 cells [5]. For the same molecule, the “LCMT-1i radiosensitizing Concentration” value in the data set with UM-SCC-69 cells [6] lay in the range of 2.5 to 10 µM. Further, the cell cycle effect entry in the data set with SCC-15 cells [7] is listed as “induced G0/G1 as well as G2/M phase arrest”; with SCC-25 cells [8] (LCMT-li alone vs control cells), “induced G2/M phase arrest”; with SCC-25 cells [8] (LCMT-li/irradiation combination vs irradiation alone) it was “increased G2/M phase arrest”; in the data set with UM-SCC-12 cells [9], “increased G2/M phase arrest”; with UM-SCC-14a cells, “increased G0/G1 arrest; also recorded: decreased G2/M phase arrest”; in the data set on UM-SCC-49 cells [10], “decreased G2/M phase arrest”. Further, the cell cycle effect result in the data set with UM-SCC-69 cells [11] (LCMT-li alone vs control cells) is “induced G0/G1 arrest”; in the data set on UM-SCC-69 cells [11] (combination vs irradiation alone), “decreased G2/M phase arrest”.
